Experimental data reported in ChEMBL document CHEMBL1159078, “Bicyclic peptides as potent inhibitors of histone deacetylases: optimization of alkyl loop length” (Bioorg Med Chem Lett, 2010).
Where a SMILES comes first, the peptide text is derived from it. [ ]: non-standard residue; d: D form. The star is where a group is joined. Asu = N[C@@H](CCCCCC(=O)O)C(=O)O; dAhp(2) = CCCCC[C@@H](N)C(=O)O; Ahp(2) = CCCCC[C@H](N)C(=O)O; NHOH = ON*

Legend:
[1] = biological target: T1, Protein deacetylase HDAC6 (Homo sapiens, UniProt Q9UBN7); assay: Inhibition of HDAC6
T1 sequence (Q9UBN7 whole entry): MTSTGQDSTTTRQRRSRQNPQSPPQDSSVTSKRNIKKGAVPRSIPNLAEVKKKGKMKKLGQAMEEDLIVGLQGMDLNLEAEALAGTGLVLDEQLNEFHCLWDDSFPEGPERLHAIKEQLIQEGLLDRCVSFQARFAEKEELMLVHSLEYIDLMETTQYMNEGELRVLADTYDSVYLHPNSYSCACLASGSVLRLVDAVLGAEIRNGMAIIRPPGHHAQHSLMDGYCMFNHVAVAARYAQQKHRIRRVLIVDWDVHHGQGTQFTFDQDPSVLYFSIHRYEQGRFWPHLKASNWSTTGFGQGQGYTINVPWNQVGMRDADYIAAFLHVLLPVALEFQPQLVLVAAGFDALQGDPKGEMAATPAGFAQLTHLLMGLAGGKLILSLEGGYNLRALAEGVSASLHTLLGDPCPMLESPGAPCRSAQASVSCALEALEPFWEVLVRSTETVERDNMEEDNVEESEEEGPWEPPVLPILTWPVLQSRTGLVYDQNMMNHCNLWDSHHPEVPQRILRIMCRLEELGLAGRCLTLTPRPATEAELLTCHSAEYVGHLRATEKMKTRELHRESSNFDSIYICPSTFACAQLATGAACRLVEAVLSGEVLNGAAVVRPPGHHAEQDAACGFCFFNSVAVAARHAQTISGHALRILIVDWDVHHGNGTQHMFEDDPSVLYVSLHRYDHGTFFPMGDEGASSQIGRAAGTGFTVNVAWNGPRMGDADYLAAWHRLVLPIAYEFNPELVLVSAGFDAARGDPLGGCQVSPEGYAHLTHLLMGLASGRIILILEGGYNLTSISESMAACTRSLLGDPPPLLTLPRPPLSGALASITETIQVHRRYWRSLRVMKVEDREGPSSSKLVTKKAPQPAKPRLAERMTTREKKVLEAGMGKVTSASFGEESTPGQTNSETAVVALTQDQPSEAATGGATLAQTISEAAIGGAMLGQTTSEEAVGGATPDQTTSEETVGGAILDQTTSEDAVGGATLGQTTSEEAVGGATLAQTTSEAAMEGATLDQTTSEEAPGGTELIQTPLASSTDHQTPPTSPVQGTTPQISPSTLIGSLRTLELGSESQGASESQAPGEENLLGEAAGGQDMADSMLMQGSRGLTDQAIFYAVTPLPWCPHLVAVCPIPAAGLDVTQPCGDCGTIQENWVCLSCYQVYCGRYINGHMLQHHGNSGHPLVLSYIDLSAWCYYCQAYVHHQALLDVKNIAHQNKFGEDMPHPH

Histone deacetylase 4 [2] = biological target: T2, Histone deacetylase 4 (Homo sapiens, UniProt P56524); assay: Inhibition of HDAC4
Histone deacetylase 4 [3] = biological target: T2, Histone deacetylase 4
Histone deacetylase 1 = Histone deacetylase 1 (Homo sapiens, UniProt Q13547); assay: Inhibition of HDAC1
[4] = Selectivity ratio, IC50 for HDAC6 to IC50 for HDAC4

T2 sequence (P56524 whole entry): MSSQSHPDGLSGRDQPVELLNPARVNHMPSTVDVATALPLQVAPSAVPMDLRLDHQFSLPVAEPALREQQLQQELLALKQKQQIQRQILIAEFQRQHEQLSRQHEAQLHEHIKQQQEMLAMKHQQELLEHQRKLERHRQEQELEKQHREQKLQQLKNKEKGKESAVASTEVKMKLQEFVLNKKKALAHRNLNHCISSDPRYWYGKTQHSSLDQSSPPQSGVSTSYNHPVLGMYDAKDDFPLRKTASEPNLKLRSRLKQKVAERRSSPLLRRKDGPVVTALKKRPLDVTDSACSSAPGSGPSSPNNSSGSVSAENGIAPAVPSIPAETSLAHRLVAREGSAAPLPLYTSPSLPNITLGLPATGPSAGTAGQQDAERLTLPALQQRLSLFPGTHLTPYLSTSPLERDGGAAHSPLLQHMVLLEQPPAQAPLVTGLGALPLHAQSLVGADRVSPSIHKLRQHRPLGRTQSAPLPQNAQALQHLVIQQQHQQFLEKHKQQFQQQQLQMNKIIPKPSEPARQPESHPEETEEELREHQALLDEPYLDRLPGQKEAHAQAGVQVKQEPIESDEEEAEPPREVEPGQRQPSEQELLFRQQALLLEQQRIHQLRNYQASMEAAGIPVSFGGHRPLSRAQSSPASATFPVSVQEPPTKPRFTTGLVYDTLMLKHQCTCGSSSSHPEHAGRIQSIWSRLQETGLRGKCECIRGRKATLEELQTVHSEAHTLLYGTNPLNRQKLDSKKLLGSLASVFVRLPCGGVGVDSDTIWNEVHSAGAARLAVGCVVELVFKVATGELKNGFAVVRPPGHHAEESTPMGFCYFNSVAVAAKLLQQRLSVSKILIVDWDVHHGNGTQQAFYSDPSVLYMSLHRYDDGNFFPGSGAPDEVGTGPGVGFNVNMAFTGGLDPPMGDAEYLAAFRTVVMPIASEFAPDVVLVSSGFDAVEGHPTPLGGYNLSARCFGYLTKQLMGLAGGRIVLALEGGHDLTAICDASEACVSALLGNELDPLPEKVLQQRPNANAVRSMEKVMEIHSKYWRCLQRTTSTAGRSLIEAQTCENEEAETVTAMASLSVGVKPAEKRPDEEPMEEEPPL
Chain of Histone deacetylase 1 (Q13547 whole entry): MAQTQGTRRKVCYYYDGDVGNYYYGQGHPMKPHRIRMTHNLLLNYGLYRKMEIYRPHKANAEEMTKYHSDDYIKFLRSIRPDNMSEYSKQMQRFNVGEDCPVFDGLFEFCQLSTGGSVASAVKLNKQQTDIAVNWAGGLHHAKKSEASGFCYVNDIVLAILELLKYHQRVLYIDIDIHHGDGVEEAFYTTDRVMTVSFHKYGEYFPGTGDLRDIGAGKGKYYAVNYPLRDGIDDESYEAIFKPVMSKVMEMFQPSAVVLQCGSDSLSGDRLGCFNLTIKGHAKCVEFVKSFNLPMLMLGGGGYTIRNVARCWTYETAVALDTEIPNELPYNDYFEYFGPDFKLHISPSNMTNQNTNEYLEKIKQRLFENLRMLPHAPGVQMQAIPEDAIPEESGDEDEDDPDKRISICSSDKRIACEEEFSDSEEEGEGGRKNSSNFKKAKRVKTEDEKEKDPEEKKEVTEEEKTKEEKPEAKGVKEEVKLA

Row | IC50 [1] [nM] | IC50 (Histone deacetylase 4 [2]) [nM] | EC1000 (Histone deacetylase 4 [3]) [nM] | IC50 (Histone deacetylase 1) [nM] | Ratio IC50 [4] | SMILES
1 | 280 | 4.5 | 2.6 | 11 | – | O=C(CCCCC[C@@H]1NC(=O)[C@H]2CCCN2C(=O)[C@@H]2CCCCCCCCCCC[C@@H](NC1=O)C(=O)N2)NO
2 | 330 | 5.4 | 92 | 9.1 | – | O=C(CCCCC[C@@H]1NC(=O)[C@H]2CCCN2C(=O)[C@@H]2CCCCCCCCC[C@@H](NC1=O)C(=O)N2)NO
3 | 240 | 5 | 2 | 13 | – | O=C(CCCCC[C@@H]1NC(=O)[C@H]2CCCN2C(=O)[C@@H]2CCCCCCCCCCCC[C@@H](NC1=O)C(=O)N2)NO
4 | 340 | 12 | 13 | 25 | – | CCCCC[C@@H]1NC(=O)[C@@H](CCCCC)NC(=O)[C@H](CCCCCC(=O)NO)NC(=O)[C@H]2CCCN2C1=O (cyclo([Ahp(2)][dP][Asu](NHOH)[dAhp(2)]))
5 | 410 | 5.5 | 7.2 | 9.1 | 75 | O=C(CCCCC[C@@H]1NC(=O)[C@H]2CCCN2C(=O)[C@@H]2CCCCCCCCCC[C@@H](NC1=O)C(=O)N2)NO
6 | – | – | 20 | – | – | CC(/C=C/C(=O)NO)=C\[C@@H](C)C(=O)c1ccc(N(C)C)cc1
